Source: patent publication US20200078379A1, “DEFEROXAMINE DERIVATIVES AS MEDICAMENTS” (BIOTECHNOLOGICKY USTAV AV CR, V.V.I., priority 2017, published 2020)
Read-outs that look alike come from different tables or passages of the source.

What was measured:
MCF7 cells = test: crystal violet assay, cellular viability; format: cell-based, human; conditions: for IC50: MCF7, 48 h, read-out: IC50 cellular viability; for viability at 10 µM: MCF7, 10 μM
Method: (§1) Compound 1 and compound 2 were tested in their efficacy to kill malignant MCF7 cancer cells. Briefly, 10.000 cells per well were seeded in a 96-well plat on one day and the next day selected compounds were added and incubated with the cells for 48 hrs. The cells were then fixed with 4% paraformaldehyde, stained with 0.05% crystal violet, washed with PBS, and solubilized in 1% SDS. The absorbance of the plate at 595 nm was then measured, quantifying the number of viable cells.
(§2) A number of compounds of the present invention were tested for cytotoxicity towards at least some of human breast cancer cell lines (MCF7, MDA-MB-231), human fibroblast (BJ) and murine triple negative breast cancer cell line 4T1 (Table 2).

[1] = system: murine triple negative breast cancer cell line 4T1; test: crystal violet assay, cellular viability; format: cell-based; conditions: Mus musculus, 4T1, 48 hours
Method: as §1, §2

[2] = system: pancreatic cell line BxPC3; test: dose-effect relationship of drugs and mixtures, crystal violet assay, Median-Effect / Combination index; format: cell-based; conditions: for IC50: read-out: Median-Effect Plot parameter IC50
Method: (§3) The potentiation of cytotoxic effect of compound 2 in combination with several cytostatics was evaluated. The dose-effect relationship of individual drugs and mixtures of compound 2 with paclitaxel, cis Pt (cis-platin), doxorubicin and fluorouracil was determined on human mammary gland cancer cell line MDA-MB-231 and pancreatic cell line BxPC3 by means of crystal violet assay. The linearized Median-Effect Plot of dose response line provided both parameters (IC50; trend line m(slope) value) of Median-Effect Equation for individual and combination treatment [ref: Theoretical basis, experimental design, and computerized simulation of synergism and antagonism in drug combination studies; Ting-Chao Chou: Pharmacol Rev. 58(3), 2006, 621-81; Erratum in Pharmacol Rev. 2007; 59(1), 124]:
(§4) Potentiation of combination effect of compound 2 was expressed for concentrations IC50, IC75, IC90, IC95 by calculation of Combination index (CI) applying Combination Index Theorem for mutually exclusive drugs. Overall CI was expressed by means of weighted average of IC50, IC75, IC90, IC95 [ref: Quantitative analysis of dose-effect relationships: the combined effects of multiple drugs or enzyme inhibitors; Ting-Chao Chou, Paul Talalay: Advances in Enzyme Regulation, Volume 22, 1984, Pages 27-55]: […]

non malignant cells (BJ) = test: AnnexinV/PI cell death assay; format: cell-based; conditions: ratio Ga:compound 2 1:0, 5 μM gallium salt alone
Method: To confirm such findings by an independent method, cell death-inducing potency (cytotoxic efficacy) of DFO and compound 2 have been tested via annexin V/PI staining commonly used as a measure of apoptotic/necrotic cell death. Briefly, cells were seeded in 12-well plate at 100,000 per well, incubated with the selected compounds for 48 hours, then floating cells were spun, adherent cells trypsinized and spun as well followed by the staining with AnnexinV-FITC and PI probes. Cells were then washed with PBS and measured via Fluorescence Activated Sorter.
We have then analyzed the percentage of death cells by the annexinV/PI staining as described in example 7. We have observed a significant potentiation in cell death induction when gallium was combined with compound 2 (Table 14)

[3] = system: human mammary gland cancer cell line MDA-MB-231; test: dose-effect relationship of drugs and mixtures, crystal violet assay, Median-Effect / Combination index; format: cell-based; conditions: for concentration of the cytostatic at IC75, cytostatic alone: MDA-MB-231; for Median-Effect Plot parameter m (slope) / IC50: MDA-MB-231, crystal violet, 48 hours; for IC50: Chou-Talalay method, read-out: Median-Effect Plot parameter IC50
Method: as §3, §4

BT474 cells = test: crystal violet assay, cellular viability; format: cell-based; conditions: crystal violet
MDA-MB-231 cells = test: crystal violet assay, cellular viability; format: cell-based, human; conditions: for mean percentage of surviving cells compared to non-treated controls: crystal violet
Method: as §1, §2

[4] = Homo sapiens, 48 hrs, crystal violet, read-out: mean percentage of viable cells compared to non-treated controls

## CC(=O)N(O)CCCCCNC(=O)CCC(=O)N(O)CCCCCNC(=O)CCC(=O)N(O)CCCCCNCCCCCCCCCC[P+](c1ccccc1)(c1ccccc1)c1ccccc1 [Compound 1, Triphenyl(3,14,25-trihydroxy-2,10,13,21,24-pentaoxo-3,9,14,20,25,31-hexaazahentetracontan-41-yl) phosphonium chloride]
MCF7 cells; Homo sapiens, crystal violet
  IC50: 2.2 µM
MCF7 cells; Homo sapiens, MCF7, 1 μM, 48 hrs, crystal violet, read-out: mean percentage of viable cells compared to non-treated controls
  viability at 1 µM: 83.3%
MCF7 cells; Homo sapiens, MCF7, 2 μM, 48 hrs, crystal violet, read-out: mean percentage of viable cells compared to non-treated controls
  viability at 2 µM: 48.2%
MCF7 cells; Homo sapiens, MCF7, 5 μM, 48 hrs, crystal violet, read-out: mean percentage of viable cells compared to non-treated controls
  viability at 5 µM: 15.2%
MCF7 cells; [4]
  viability at 10 µM: 11.9%

## CCCCCCCC[P+](CCCCCCCC)(CCCCCCCC)CCCCCCCCCCNCCCCCN(O)C(=O)CCC(=O)NCCCCCN(O)C(=O)CCC(=O)NCCCCCN(O)C(C)=O [Compound 11, 3,14,25-trihydroxy-42,42-dioctyl-2,10,13,21,24-pentaoxo-3,9,14,20,25,31-hexaaza-42-phosphapentacontane-31,42-diium dichloride]
MCF7 cells; Homo sapiens, crystal violet
  IC50: 4 µM

## CC(=O)N(O)CCCCCNC(=O)CCC(=O)N(O)CCCCCNC(=O)CCC(=O)N(O)CCCCCN(CCCCOCCCCCCCCCC[P+](c1ccccc1)(c1ccccc1)c1ccccc1)CCCCOCCCCCCCCCC[P+](c1ccccc1)(c1ccccc1)c1ccccc1 [Compound 15, 3-(diphenyl(3,14,25-trihydroxy-2,10,13,21,24-pentaoxo-31-(4-((10-(triphenylphosphonio)decyl)oxy)butyl)-36-oxa-3,9,14,20,25,31-hexaazahexatetracontan-31-ium-46-yl)phosphonio)benzen-1-ide trichloride]
MCF7 cells; Homo sapiens, crystal violet
  IC50: 0.5 µM

## CC(=O)ON(CCCCCNC(=O)CCC(=O)N(CCCCCNC(=O)CCC(=O)N(CCCCCN(CCCCCCCCCC[P+](c1ccccc1)(c1ccccc1)c1ccccc1)CCCCCCCCCC[P+](c1ccccc1)(c1ccccc1)c1ccccc1)OC(C)=O)OC(C)=O)C(C)=O [Compound 16, (15,26-diacetoxy-4-acetyl-2,11,14,22,25-pentaoxo-32-(10-(triphenylphosphonio)decyl)-3-oxa-4,10,15,21,26,32-hexaazadotetracontan-32-ium-42-yl)triphenylphosphonium trichloride]
MCF7 cells; Homo sapiens
  IC50: 0.8 µM

## CCCCCCCCCCCCCCCC(=O)ON(CCCCCNC(=O)CCC(=O)N(CCCCCNC(=O)CCC(=O)N(CCCCCN(CCCCCCCCCC[P+](c1ccccc1)(c1ccccc1)c1ccccc1)CCCCCCCCCC[P+](c1ccccc1)(c1ccccc1)c1ccccc1)OC(=O)CCCCCCCCCCCCCCC)OC(=O)CCCCCCCCCCCCCCC)C(C)=O [Compound 17, (39-acetyl-18,21,29,32,41-pentaoxo-17,28-bis(palmitoyloxy)-11-(10-(triphenylphosphonio)decyl)-40-oxa-11,17,22,28,33,39-hexaazahexapentacontyl)triphenylphosphonium trichloride]
MCF7 cells; Homo sapiens, crystal violet
  IC50: 0.7 µM

## CC(=O)N(O)CCCCCNC(=O)CCC(=O)N(O)CCCCCNC(=O)CCC(=O)N(O)CCCCCN(Cc1cnnn1CCCCCCCCCC[P+](c1ccccc1)(c1ccccc1)c1ccccc1)Cc1cnnn1CCCCCCCCCC[P+](c1ccccc1)(c1ccccc1)c1ccccc1 [Compound 20, Triphenyl(10-(5-(8,19,30-trihydroxy-9,12,20,23,31-pentaoxo-2-((1-(10-(triphenylphosphonio)decyl)-1H-1,2,3-triazol-5-yl)methyl)-2,8,13,19,24,30-hexaazadotriacontyl)-1H-1,2,3-triazol-1-yl)decyl)phosphonium]
[1]
  IC50: 2.2 µM

## O=c1[nH]cc(F)c(=O)[nH]1 [Fluorouracil, fluorouracil]
[2]; 48 hours
  Median-Effect Plot parameter m (slope): 0.33
  IC50: 48.3 µM
[2]; Homo sapiens, BXPC-3, 48 h
  IC50: 48.3 µM

## O=[N+]([O-])[O-].O=[N+]([O-])[O-].O=[N+]([O-])[O-].[Ga+3] [Ga(NO3)2, gallium nitrate, reference compound]
Non malignant cells (BJ)
  percentage of death cells by annexinV/PI staining: 14.45 (5.6)

## N.N.[Cl][Pt][Cl] [cis Pt, cis-platin]
[3]
  concentration of the cytostatic at IC75, cytostatic alone: 42.2751 µM
  Median-Effect Plot parameter m (slope): 1.4574
  IC50: 21.8 µM
[2]; 48 hours
  Median-Effect Plot parameter m (slope): 1.59
  IC50: 4.18 µM

## CC(=O)N(O)CCCCCNC(=O)CCC(=O)N(O)CCCCCNC(=O)CCC(=O)N(O)CCCCCN(CCCCCC[P+](c1ccccc1)(c1ccccc1)c1ccccc1)CCCCCC[P+](c1ccccc1)(c1ccccc1)c1ccccc1.[Cl-].[Cl-] [compound 3, Triphenyl(3,14,25-trihydroxy-2,10,13,21,24-pentaoxo-31-(6-(triphenylphosphonio)hexyl)-3,9,14,20,25,31-hexaazaheptatriacontan-37-yl)phosphonium chloride]
BT474 cells; BT474, 4 μM
  mean percentage of surviving cells compared to non-treated controls: 101.7%
BT474 cells; BT474, 6 μM
  mean percentage of surviving cells compared to non-treated controls: 109.1%
BT474 cells; BT474, 8 μM
  mean percentage of surviving cells compared to non-treated controls: 104.1%
BT474 cells; BT474, 10 μM
  mean percentage of surviving cells compared to non-treated controls: 99.2%
BT474 cells; BT474, 20 μM
  mean percentage of surviving cells compared to non-treated controls: 91.5%
BT474 cells; BT474, 40 μM
  mean percentage of surviving cells compared to non-treated controls: 74.2%
BT474 cells; BT474, 60 μM
  mean percentage of surviving cells compared to non-treated controls: 58.9%
BT474 cells; BT474, 80 μM
  mean percentage of surviving cells compared to non-treated controls: 49.6%
BT474 cells; BT474, 100 μM
  mean percentage of surviving cells compared to non-treated controls: 47.8%
BT474 cells; Homo sapiens, BT-474, BT474, 48 hours, read-out: IC50 cellular viability
  IC50: 83.5 µM
MDA-MB-231 cells; Homo sapiens, MDA-MB-231, 48 h, read-out: IC50 cellular viability
  IC50: 232 µM
MDA-MB-231 cells; MDA-MB-231, 4 μM
  mean percentage of surviving cells compared to non-treated controls: 97.7%
MDA-MB-231 cells; MDA-MB-231, 6 μM
  mean percentage of surviving cells compared to non-treated controls: 95.3%
MDA-MB-231 cells; MDA-MB-231, 8 μM
  mean percentage of surviving cells compared to non-treated controls: 103.1%
MDA-MB-231 cells; MDA-MB-231, 10 μM
  mean percentage of surviving cells compared to non-treated controls: 97.4%
MDA-MB-231 cells; MDA-MB-231, 20 μM
  mean percentage of surviving cells compared to non-treated controls: 98.9%
MDA-MB-231 cells; MDA-MB-231, 40 μM
  mean percentage of surviving cells compared to non-treated controls: 91.3%
MDA-MB-231 cells; MDA-MB-231, 60 μM
  mean percentage of surviving cells compared to non-treated controls: 86.5%
MDA-MB-231 cells; MDA-MB-231, 80 μM
  mean percentage of surviving cells compared to non-treated controls: 77.2%
MDA-MB-231 cells; MDA-MB-231, 100 μM
  mean percentage of surviving cells compared to non-treated controls: 76.0%
MCF7 cells; Homo sapiens, crystal violet
  IC50: 70.4 µM
MCF7 cells; [4]
  viability at 10 µM: 93.9%
MCF7 cells; MCF7, 4 μM, crystal violet
  mean percentage of surviving cells compared to non-treated controls: 100.4%
MCF7 cells; MCF7, 6 μM, crystal violet
  mean percentage of surviving cells compared to non-treated controls: 99.1%
MCF7 cells; MCF7, 8 μM, crystal violet
  mean percentage of surviving cells compared to non-treated controls: 98.2%
MCF7 cells; MCF7, 20 μM, crystal violet
  mean percentage of surviving cells compared to non-treated controls: 84.0%
MCF7 cells; MCF7, 40 μM, crystal violet
  mean percentage of surviving cells compared to non-treated controls: 74.6%
MCF7 cells; MCF7, 60 μM, crystal violet
  mean percentage of surviving cells compared to non-treated controls: 55.2%
MCF7 cells; MCF7, 80 μM, crystal violet
  mean percentage of surviving cells compared to non-treated controls: 43.2%
MCF7 cells; MCF7, 100 μM, crystal violet
  mean percentage of surviving cells compared to non-treated controls: 37.9%

## COc1cccc2c1C(=O)c1c(O)c3c(c(O)c1C2=O)C[C@@](O)(C(=O)CO)C[C@@H]3O[C@H]1C[C@H](N)[C@H](O)[C@H](C)O1 [doxorubicin]
[3]; Homo sapiens
  IC50: 0.319 µM
[3]
  concentration of the cytostatic at IC75, cytostatic alone: 3.5789 µM
  Median-Effect Plot parameter m (slope): 0.4543

## CC(=O)O[C@H]1C(=O)[C@@]2(C)[C@H]([C@H](OC(=O)c3ccccc3)[C@]3(O)C[C@H](OC(=O)[C@H](O)[C@@H](NC(=O)c4ccccc4)c4ccccc4)C(C)=C1C3(C)C)[C@]1(OC(C)=O)CO[C@@H]1C[C@@H]2O [paclitaxel]
[3]; Homo sapiens
  IC50: 0.0189 µM
[3]
  concentration of the cytostatic at IC75, cytostatic alone: 0.1420 µM
  Median-Effect Plot parameter m (slope): 0.5451
